Assay results reported in US20210238187A1, “AZIRIDINE CONTAINING EPOTHILONE ANALOGS, METHODS OF SYNTHESIS, METHODS OF TREATMENT, AND DRUG CONJUGATES” (WILLIAM MARSH RICE UNIVERSITY, priority 2017, published 2021).
Where two headings read alike, the source gives them in different places.

How the values were obtained:
OVCAR-8 = test: Cytotoxicity (GI50) assay, OVCAR-8; type: cell-based, human; details: OVCAR-8; human ovarian cancer cell line; read-out: Cancer cell lines GI50, OVCAR-8
Tubulin = Tubulin assembly induction; type: biochemical
NCI/ADR-RES = test: Cytotoxicity (GI50) assay, NCI/ADR-RES; type: cell-based, human; details: Homo sapiens, NCI/ADR-RES, read-out: Cancer cell lines GI50, NCI/ADR-RES
SNB-75 = test: Cytotoxicity (GI50) assay, SNB-75; type: cell-based, human; details: SNB-75; human glioblastoma cell line; read-out: Cancer cell lines GI50, SNB-75
MCF-7 = test: Cytotoxicity (GI50) assay, MCF-7; type: cell-based, human; details: MCF7; human breast cancer cell line; concentration required to decrease cell growth by 50%; read-out: Cancer cell lines GI50, MCF-7
MES SA DX = test: Cytotoxicity assay (CellTiter-Glo), MES SA DX; type: cell-based, human; details: Homo sapiens, read-out: Cancer cell lines IC50, MES SA DX
MES SA = test: Cytotoxicity assay (CellTiter-Glo), MES SA; type: cell-based, human; details: MES-SA; human uterine sarcoma cell line; 72 hours, CellTiter-Glo; read-out: Cancer cell lines IC50, MES SA
human cancer cell lines [1] = system: human cancer cell lines
MDA-MB-435 = test: Cytotoxicity (GI50) assay, MDA-MB-435; type: cell-based, human; details: MDA-MB-435; human melanoma cell line; read-out: Cancer cell lines GI50, MDA-MB-435
[2] = system: MES SA, MES SA DX, and HEK 293T; test: Cytotoxicity (IC50), summary over MES SA, MES SA DX and HEK 293T; type: cell-based, human; details: Homo sapiens, read-out: IC50 against all three cell lines (summary of Table 4)
human cancer cell lines [3] = test: cells; details: read-out: GI50, range over the cell lines of Table 3

| Compound | GI50 (OVCAR-8) [nM] | EC50 (Tubulin; […]) [nM] | GI50 (NCI/ADR-RES; highly drug resistant human ovarian cancer cell line) [nM] | GI50 (SNB-75) [nM] | GI50 (MCF-7) [nM] | IC50 (MES SA DX; MES SA cell line with marked multidrug resistance, 72 hours, CellTiter-Glo) [nM] | IC50 (MES SA) [nM] | cytotoxicity (in words) (human cancer cell lines [1]) | GI50 (MDA-MB-435) [nM] | IC50 [2] [nM] | EC50 (Tubulin) [nM] | GI50 (NCI/ADR-RES) [nM] | GI50 (human cancer cell lines [3]) [nM] | IC50 (MES SA DX; MES-SA, 72 h) [nM] |
| --- | --- | --- | --- | --- | --- | --- | --- | --- | --- | --- | --- | --- | --- | --- |
| CC(=O)[C@@H]1C[C@@H]2N(CCO)[C@]2(C)CCC[C@H](C)[C@H](O)[C@@H](C)C(=O)C(C)(C)[C@@H](O)CC(=O)O1 (stereo partly drawn) [compound 81, (1S,3S,7S,10R,11S,12S,16R)-3-Acetyl-7,11-dihydroxy-17-(2-hydroxyethyl)-8,8,10,12,16-penta-methyl-4-oxa-17-azabicyclo[14.1.0]heptadecane-5,9-dione] | 550 | > 60000 | > 5000 | 360 | 580 | > 400 | 36.1 | significant cytotoxicity | 200 |  |  |  |  |  |
| CSc1cc(/C=C(\C)[C@@H]2C/C=C(/C)CCC[C@H](C)[C@H](O)[C@@H](C)C(=O)C(C)(C)[C@@H](O)CC(=O)O2)nn1C [compound 73, (4S,7R,8S,9S,13Z,16S)-4,8-Dihydroxy-5,5,7,9,13-pentamethyl-16-{(1E)-1-[1-methyl-5-(methylsulfanyl)-1H-pyrazol-3-yl]prop-1-en-2-yl}oxacyclohexadec-13-ene-2,6-dione] | 22 |  |  |  | 5 |  | 24.1 |  |  | 0.17 to 39.2 | 9300 | 52 | 5 to 52 | 39.2 |
